Biological target: CDK2/Cyclin E1 (Homo sapiens, UniProt P24941)
Assay: CDK2/Cyclin E1 Caliper LabChip EZ Reader mobility shift assay
Type: biochemical
Parameters: purchased Eurofins 14-475
Conditions: read-out: Caliper Assay (CDK2/CCNE1): IC50
Method in brief: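 Mobility-shift kinase assay: compound titrations preincubated 30 min with enzyme and ATP, reaction started with 5-FAM-QSPKKG-CONH2 peptide. Final 2.5 nM CDK2/Cyclin E1, 100 μM ATP, 1.5 μM peptide, HEPES pH 7.5; stopped with EDTA after 100 min. IC50 from four-parameter fit of normalized conversion ratio.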

Row | Structure (SMILES) | IC50 [nM]
1 | CNC(=O)[C@H](COCc1ccccc1)NC(=O)[C@@H]1CN(C(=O)c2cnn(Cc3ccccc3)c2)CC12CN(C(=O)C(C)(C)C)C2 [I-100A] | 1000 to 10000
2 | CNC(=O)[C@H](COCc1ccccc1)NC(=O)[C@H]1CN(C(=O)c2cnn(Cc3ccccc3)c2)CC12CN(C(=O)C(C)(C)C)C2 [I-100B] | > 10000
3 | CNC(=O)[C@H](CCCc1ccccc1)NC(=O)[C@@H]1CN(C(=O)c2cnn(Cc3ccccc3)c2)CC12CN(C(=O)[C@H]1CC1(C)C)C2 [I-101A] | 100 to 1000
4 | CNC(=O)[C@H](CCCc1ccccc1)NC(=O)[C@H]1CN(C(=O)c2cnn(Cc3ccccc3)c2)CC12CN(C(=O)[C@H]1CC1(C)C)C2 [I-101B] | > 10000
5 | CNC(=O)[C@@H](NC(=O)[C@@H]1CN(C(=O)c2cnn(Cc3ccccc3)c2)CC12CN(C(=O)C1(CCOC)CC1)C2)[C@@H](C)OCc1ccccc1 [I-102A] | > 10000
6 | CNC(=O)[C@@H](NC(=O)[C@H]1CN(C(=O)c2cnn(Cc3ccccc3)c2)CC12CN(C(=O)C1(CCOC)CC1)C2)[C@@H](C)OCc1ccccc1 [I-102B] | > 10000
7 | CNC(=O)[C@@H](NC(=O)[C@@H]1CN(C(=O)c2cncs2)CC12CN(C(=O)CC1CC1)C2)[C@@H](C)OCC1CCCCC1 [I-103A] | 100 to 1000
8 | CNC(=O)[C@@H](NC(=O)[C@H]1CN(C(=O)c2cncs2)CC12CN(C(=O)CC1CC1)C2)[C@@H](C)OCC1CCCCC1 [I-103B] | > 10000
9 | C[C@@H]1C[C@H](C)CN(C(=O)[C@@H](NC(=O)C2CN(C(=O)c3cnn(Cc4ccccc4)c3)CC23CN(C(=O)[C@H]2CC2(C)C)C3)[C@@H](C)OCC2CCCCC2)C1 (stereo partly shown) [I-104] | 10 to 100
10 | C[C@@H](OCC1CCCCC1)[C@H](NC(=O)C1CN(C(=O)c2cnn(Cc3ccccc3)c2)CC12CN(C(=O)[C@H]1CC1(C)C)C2)C(=O)N1CCCC(CO)C1 (stereo partly shown) [I-105] | ≤ 10
11 | C[C@@H](OCc1ccccc1)[C@H](NC(=O)C1CN(C(=O)c2cnn(Cc3ccccc3)c2)CC12CN(C(=O)[C@H]1CC1(C)C)C2)C(=O)N1CC2(CCC2)C1 (stereo partly shown) [I-106] | 10 to 100
12 | C[C@@H](OCC1CCCCC1)[C@H](NC(=O)C1CN(C(=O)c2cnn(Cc3ccccc3)c2)CC12CN(C(=O)[C@H]1CC1(C)C)C2)C(=O)N1CC2(CCC2)C1 (stereo partly shown) [I-107] | ≤ 10
13 | CNC(=O)[C@@H](NC(=O)[C@@H]1CN(C(=O)c2cnn(Cc3ccccc3)c2)CC12CN(C(=O)C1(C(F)(F)F)CC1)C2)[C@@H](C)OCc1ccccc1 [I-108A] | 100 to 1000
14 | CNC(=O)[C@@H](NC(=O)[C@H]1CN(C(=O)c2cnn(Cc3ccccc3)c2)CC12CN(C(=O)C1(C(F)(F)F)CC1)C2)[C@@H](C)OCc1ccccc1 [I-108B] | > 10000
15 | CNC(=O)[C@@H](NC(=O)[C@@H]1CN(C(=O)c2cnn(Cc3ccccc3)c2)CC12CN(C(=O)[C@H]1CC1(C)C)C2)[C@@H](C)OCC1CCCC1 [I-110A] | 10 to 100
16 | CNC(=O)[C@@H](NC(=O)[C@H]1CN(C(=O)c2cnn(Cc3ccccc3)c2)CC12CN(C(=O)[C@H]1CC1(C)C)C2)[C@@H](C)OCC1CCCC1 [I-110B] | 100 to 1000
17 | CNC(=O)[C@@H](NC(=O)[C@@H]1CN(C(=O)c2n[nH]c3ccccc23)CC12CN(C(=O)[C@H]1CC1(C)C)C2)[C@@H](C)OCc1ccccc1 [I-112A] | 1000 to 10000
18 | CNC(=O)[C@@H](NC(=O)[C@H]1CN(C(=O)c2n[nH]c3ccccc23)CC12CN(C(=O)[C@H]1CC1(C)C)C2)[C@@H](C)OCc1ccccc1 [I-112B] | > 10000
19 | CNC(=O)[C@H](COCc1ccccc1)NC(=O)[C@@H]1CN(C(=O)c2cnn(Cc3ccccc3)c2)CC12CN(C(=O)C1(C(F)(F)F)CC1)C2 [I-113A, (S)-6-(1-benzyl-1H-pyrazole-4-carbonyl)-N—((S)-3-(benzyloxy)-1-(methylamino)-1-oxopropan-2-yl)-2-(1-(trifluoromethyl)cyclopropane-1-carbonyl)-2,6-diazaspiro[3.4]octane-8-carboxamide] | 1000 to 10000

Row | Structure (SMILES) | IC50 [nM]
20 | CNC(=O)[C@@H](NC(=O)[C@@H]1CN(C(=O)c2cnn(Cc3ccccc3)c2)CC12CN(C(=O)C1(C3CC3)CC1)C2)[C@@H](C)OCc1ccccc1 [I-114A] | 100 to 1000
21 | CNC(=O)[C@@H](NC(=O)[C@H]1CN(C(=O)c2cnn(Cc3ccccc3)c2)CC12CN(C(=O)C1(C3CC3)CC1)C2)[C@@H](C)OCc1ccccc1 [I-114B] | > 10000
22 | C[C@@H](OCC1CCCCC1)[C@H](NC(=O)[C@@H]1CN(C(=O)c2cnn(C(F)(F)F)c2)CC12CN(C(=O)[C@H]1CC1(C)C)C2)C(=O)N1CCCCC1 [I-115] | 100 to 1000
23 | CNC(=O)[C@@H](NC(=O)[C@@H]1CN(C(=O)c2cnn(Cc3ccccc3)c2)CC12CN(C(=O)C1(CC3CC3)CC1)C2)[C@@H](C)OCc1ccccc1 [I-116A] | > 10000
24 | CNC(=O)[C@@H](NC(=O)[C@H]1CN(C(=O)c2cnn(Cc3ccccc3)c2)CC12CN(C(=O)C1(CC3CC3)CC1)C2)[C@@H](C)OCc1ccccc1 [I-116B] | > 10000
25 | CNC(=O)[C@@H](NC(=O)[C@@H]1CN(C(=O)c2cnn(Cc3ccccc3)c2)CC12CN(C(=O)C1(CCF)CC1)C2)[C@@H](C)OCc1ccccc1 [I-117A] | 1000 to 10000
26 | CNC(=O)[C@@H](NC(=O)[C@H]1CN(C(=O)c2cnn(Cc3ccccc3)c2)CC12CN(C(=O)C1(CCF)CC1)C2)[C@@H](C)OCc1ccccc1 [I-117B] | > 10000
27 | CC(=O)N1C[C@@H](C(=O)N[C@H](C(=O)N2CCCCC2)[C@@H](C)OCC2CCCCC2)C2(C1)CN(C(=O)[C@H]1CC1(C)C)C2 [I-118] | > 10000
28 | CNC(=O)[C@@H](NC(=O)[C@@H]1CN(C(=O)c2cnn(Cc3ccccc3)c2)CC12CN(C(=O)[C@H]1CC1(C)C)C2)[C@@H](C)OCC1CCOCC1 [I-119A] | 100 to 1000
29 | CNC(=O)[C@@H](NC(=O)[C@H]1CN(C(=O)c2cnn(Cc3ccccc3)c2)CC12CN(C(=O)[C@H]1CC1(C)C)C2)[C@@H](C)OCC1CCOCC1 [I-119B] | 1000 to 10000
30 | CC1(C)C[C@@H]1C(=O)N1CC2(CN(C(=O)c3cnn(Cc4ccccc4)c3)C[C@H]2C(=O)N[C@H]2CCc3cc(Cl)ccc32)C1 [I-120A] | 100 to 1000
31 | CC1(C)C[C@@H]1C(=O)N1CC2(CN(C(=O)c3cnn(Cc4ccccc4)c3)C[C@@H]2C(=O)N[C@H]2CCc3cc(Cl)ccc32)C1 [I-120B] | 1000 to 10000
32 | CNC(=O)[C@@H](NC(=O)[C@@H]1CN(C(=O)c2cnn(CC3CCOCC3)c2)CC12CN(C(=O)[C@H]1CC1(C)C)C2)[C@@H](C)OCC1CCCCC1 [I-121A] | 10 to 100
33 | CNC(=O)[C@@H](NC(=O)[C@H]1CN(C(=O)c2cnn(CC3CCOCC3)c2)CC12CN(C(=O)[C@H]1CC1(C)C)C2)[C@@H](C)OCC1CCCCC1 [I-121B] | 1000 to 10000
34 | COCCNC(=O)[C@@H]1CN(C(=O)c2cnn(Cc3ccccc3)c2)CC12CN(C(=O)[C@H]1CC1(C)C)C2 [I-122A] | > 10000
35 | COCCNC(=O)[C@H]1CN(C(=O)c2cnn(Cc3ccccc3)c2)CC12CN(C(=O)[C@H]1CC1(C)C)C2 [I-122B] | > 10000
36 | CNC(=O)[C@@H](NC(=O)[C@@H]1CN(C(=O)c2cnn(Cc3ccccc3)c2)CC12CN(C(=O)[C@H]1CC1(C)C)C2)[C@@H](C)OCC1CCCCC1 [I-123A, (S)-6-(1-benzyl-1H-pyrazole-4-carbonyl)-N-((2S,3R)-3-(cyclohexylmethoxy)-1-(methylamino)-1-oxobutan-2-yl)-2-((S)-2,2-dimethylcyclopropane-1-carbonyl)-2,6-diazaspiro[3.4]octane-8-carboxamide] | ≤ 10
37 | CNC(=O)[C@@H](NC(=O)[C@H]1CN(C(=O)c2cnn(Cc3ccccc3)c2)CC12CN(C(=O)[C@H]1CC1(C)C)C2)[C@@H](C)OCC1CCCCC1 [I-123B] | 100 to 1000

From patent publication US20240174680A1, “CDK2 INHIBITORS AND METHODS OF USING THE SAME” (Cedilla Therapeutics, Inc., priority 2021, published 2024)
